Experimental data taken from ChEMBL document CHEMBL4808148, “HDAC6 screening dataset using tau-based substrate in an enzymatic assay yields selective inhibitors and activators” (2021).

These compounds were tested against T1, Protein deacetylase HDAC6 (Homo sapiens) (UniProt Q9UBN7). Conditions: at 10 µM.
T1 sequence (whole entry): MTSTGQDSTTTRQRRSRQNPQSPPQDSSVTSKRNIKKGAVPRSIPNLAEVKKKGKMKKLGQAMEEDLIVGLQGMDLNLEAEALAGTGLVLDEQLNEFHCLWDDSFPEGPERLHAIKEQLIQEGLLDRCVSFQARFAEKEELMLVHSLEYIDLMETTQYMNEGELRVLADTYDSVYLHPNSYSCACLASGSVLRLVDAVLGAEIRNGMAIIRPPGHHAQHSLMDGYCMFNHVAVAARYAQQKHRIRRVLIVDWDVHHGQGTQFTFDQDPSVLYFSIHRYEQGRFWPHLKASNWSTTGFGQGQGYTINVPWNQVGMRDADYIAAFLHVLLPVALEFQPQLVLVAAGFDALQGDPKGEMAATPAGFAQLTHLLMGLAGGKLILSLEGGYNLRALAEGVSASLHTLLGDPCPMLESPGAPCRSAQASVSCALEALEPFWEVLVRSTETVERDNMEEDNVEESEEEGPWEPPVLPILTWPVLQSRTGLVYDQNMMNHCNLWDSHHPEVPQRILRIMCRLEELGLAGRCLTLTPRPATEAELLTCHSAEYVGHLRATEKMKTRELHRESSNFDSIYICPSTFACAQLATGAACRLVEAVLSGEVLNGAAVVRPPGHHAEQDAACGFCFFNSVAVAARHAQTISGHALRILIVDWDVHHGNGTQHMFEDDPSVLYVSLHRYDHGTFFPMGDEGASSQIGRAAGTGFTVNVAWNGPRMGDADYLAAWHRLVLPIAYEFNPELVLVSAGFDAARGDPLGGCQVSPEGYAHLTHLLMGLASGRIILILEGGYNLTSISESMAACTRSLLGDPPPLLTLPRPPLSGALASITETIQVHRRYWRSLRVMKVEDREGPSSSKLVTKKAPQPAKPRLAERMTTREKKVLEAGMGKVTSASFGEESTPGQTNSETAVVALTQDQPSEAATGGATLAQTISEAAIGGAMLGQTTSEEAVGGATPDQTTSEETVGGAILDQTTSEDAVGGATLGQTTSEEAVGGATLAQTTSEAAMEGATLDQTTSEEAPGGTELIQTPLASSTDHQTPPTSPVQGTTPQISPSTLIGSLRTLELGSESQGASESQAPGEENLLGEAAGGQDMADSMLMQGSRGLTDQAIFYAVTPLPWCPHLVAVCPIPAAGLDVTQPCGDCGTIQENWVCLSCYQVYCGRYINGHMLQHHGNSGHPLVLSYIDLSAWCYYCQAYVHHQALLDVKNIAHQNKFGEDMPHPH

Row | SMILES | inhibition
1 | C/N=c1/nc(-c2ccccc2)n(-c2ccccc2)s1 | 81.7%
2 | NCCNc1ccc(NCCN)c2c1C(=O)c1ccncc1C2=O | 108%
3 | COc1cc(OC)cc(-c2ccc3c(-c4ccc(F)cc4)n[nH]c3n2)c1 | 47.1%
4 | Cc1nc2ccc(-n3ncc(C(=O)c4cc5ccccc5[nH]4)c3N)cc2[nH]1 | 112%
5 | Cc1cc(C)c(S(=O)(=O)Nc2cccc(C(F)(F)F)c2)c(C)c1 | -5.7%
6 | C/C(=N\NC(=N)N)c1cc(NC(=O)CCCCCCCCC(=O)Nc2cc(/C(C)=N/NC(=N)N)cc(/C(C)=N/NC(=N)N)c2)cc(/C(C)=N/NC(=N)N)c1 | 57.5%
7 | CC(C)(C)c1ccc(C(=O)Nc2cn3cc(-n4ccnc4)ccc3n2)cc1 | 67.2%
8 | O=C1Cc2c([nH]c3ccc(Br)cc23)-c2ncccc2N1 | 92.8%
9 | COc1ccc(-c2nc3cc(C4=NNC(=O)CC4C)ccc3[nH]2)cc1 (configuration not stated) | 97.8%
10 | O=C(Nc1ccc2[nH]ccc2c1)c1ccccc1 | 86.3%
11 | O=C(O)Cc1ccc2c(c1)C(=O)c1ccccc1CO2 | 64.3%
12 | Cc1cc(NCCO)nc(-c2ccc(Br)cc2)n1 | 64.4%
13 | O=c1c2ccccc2oc2ccccc12 | 61.8%
14 | O=C(Oc1ccccc1)c1ccccc1O | 67.9%
15 | O=c1c2ccccc2[se]n1-c1ccccc1 | 3.77%
16 | CCOc1cc(/C=C2/C(=O)N(c3ccccc3)N=C2C)cc(Cl)c1OCC(=O)OC | 16.6%
17 | Cc1[nH]cnc1-c1ccc(Cl)cc1 | 94.8%
18 | O=C(/C=C/c1ccc(O)c(O)c1)OCCc1ccccc1 | 47.2%
19 | O=C(O)CNC(=O)c1c(O)c2ccccc2n(Cc2ccccc2)c1=O | 73.4%
20 | c1cc(Nc2cc(C3CC3)n[nH]2)nc(Nc2ccc3[nH]cnc3c2)n1 | 66.6%
21 | C[C@@H]1CC(=O)c2c(ccc3c2C(=O)c2cccc(O)c2C3=O)C1 | 105%
22 | O=C(/C=C/c1ccc(O)cc1)c1ccc(O)cc1O | 97.8%
23 | O=C(CCCCCN1C(=O)c2cccc3cccc(c23)C1=O)NO | 104%
24 | N#Cc1cc(F)cc(-c2nc(-c3ccc(F)cn3)no2)c1 | 55.6%

Row | SMILES | inhibition
25 | CN1CCCN=C1/C=C/c1cccs1 | 42%
26 | CCCn1c(=O)c2[nH]c(-c3cnn(Cc4cccc(C(F)(F)F)c4)c3)nc2n(CC)c1=O | 18.7%
27 | c1ccc(CCNc2nc(-c3ccccc3)cs2)cc1 | 96.5%
28 | CCCCc1nc2cc(/C=C/C(=O)NO)ccc2n1CCN(CC)CC | 83.5%
29 | COc1ccc(C2C(=O)c3ccccc3C2=O)cc1 | 99.8%
30 | Cc1c(CN(C)C(=O)/C=C/c2cnc3c(c2)CCC(=O)N3)oc2ccccc12 | 0.5%
31 | NS(=O)(=O)c1cc2c(cc1C(F)(F)F)NC(Cc1ccccc1)NS2(=O)=O (configuration not stated) | 36%
32 | Cn1cc(/C=C2/C(=O)Nc3cccnc32)c2ccccc21 | 109%
33 | c1ccc(-c2cnn3cc(-c4ccc(OCCN5CCOCC5)cc4)cnc23)cc1 | 106%
34 | N#C/C(=C\c1ccc(O)c(O)c1)C(=O)Nc1ccccc1 | 58.9%
35 | CCCCOC(=O)c1ccc(O)cc1 | 81.3%
36 | Cc1cc(Cl)ccc1OCCCC(=O)NO | 96.5%
37 | CCC(CC)(CC(=O)Nc1cccc(/C=C/c2nc(C3CCC3)cs2)c1)C(=O)O | 36.2%
38 | Cc1cn([C@H]2C=C[C@@H](CO)O2)c(=O)[nH]c1=O | 19.5%
39 | N#C/C(=C\c1ccc(O)c(O)c1)C(=O)NCCCc1ccccc1 | 33.8%
40 | COC(=O)Nc1nc2cc(SC(C)C)ccc2[nH]1 | 87.7%
41 | CC(C)(C)c1[nH]cnc1/C=c1\[nH]c(=O)/c(=C/c2ccccc2)[nH]c1=O | 80.7%
42 | COc1ccc(Nc2ccn(-c3ccccc3)n2)cc1 | 111%
43 | CN(C)Cc1c(C(=O)NCCOc2ccc(C(=O)NO)cc2)oc2ccccc12 | 102%
44 | O=C(CCCCCCNC(=O)c1cnc(N(c2ccccc2)c2ccccc2)nc1)NO | 105%
45 | O=C(NCc1ccc2c(c1)OCO2)c1c(Cl)cccc1Cl | 17.4%
46 | O=C(NC1CC1)c1cc(-c2cccs2)on1 | 70.5%
47 | O=C1C(Cl)=C(N2CCOCC2)C(=O)N1c1ccc(Cl)c(Cl)c1 | 83.8%
